Legend:
Type in all cases: cell-based
[1] = biological target: T1, TRPM5 (Homo sapiens, UniProt Q9NZQ8); assay: Membrane potential assay in transiently TRPM5-transfected HEK 293 cells (FLEXstation); set-up: the full length hTRPM5 was amplified by PCR using GC Melt; expressed in transfected cells; host or cells: HEK 293 (ATCC), transient transfection with Lipofectamine 2000; details: for TRPM5 response to agonist (relative fluorescence): within the first 30 seconds of agonist addition, FMP dye
T1 sequence (Q9NZQ8 1-1165): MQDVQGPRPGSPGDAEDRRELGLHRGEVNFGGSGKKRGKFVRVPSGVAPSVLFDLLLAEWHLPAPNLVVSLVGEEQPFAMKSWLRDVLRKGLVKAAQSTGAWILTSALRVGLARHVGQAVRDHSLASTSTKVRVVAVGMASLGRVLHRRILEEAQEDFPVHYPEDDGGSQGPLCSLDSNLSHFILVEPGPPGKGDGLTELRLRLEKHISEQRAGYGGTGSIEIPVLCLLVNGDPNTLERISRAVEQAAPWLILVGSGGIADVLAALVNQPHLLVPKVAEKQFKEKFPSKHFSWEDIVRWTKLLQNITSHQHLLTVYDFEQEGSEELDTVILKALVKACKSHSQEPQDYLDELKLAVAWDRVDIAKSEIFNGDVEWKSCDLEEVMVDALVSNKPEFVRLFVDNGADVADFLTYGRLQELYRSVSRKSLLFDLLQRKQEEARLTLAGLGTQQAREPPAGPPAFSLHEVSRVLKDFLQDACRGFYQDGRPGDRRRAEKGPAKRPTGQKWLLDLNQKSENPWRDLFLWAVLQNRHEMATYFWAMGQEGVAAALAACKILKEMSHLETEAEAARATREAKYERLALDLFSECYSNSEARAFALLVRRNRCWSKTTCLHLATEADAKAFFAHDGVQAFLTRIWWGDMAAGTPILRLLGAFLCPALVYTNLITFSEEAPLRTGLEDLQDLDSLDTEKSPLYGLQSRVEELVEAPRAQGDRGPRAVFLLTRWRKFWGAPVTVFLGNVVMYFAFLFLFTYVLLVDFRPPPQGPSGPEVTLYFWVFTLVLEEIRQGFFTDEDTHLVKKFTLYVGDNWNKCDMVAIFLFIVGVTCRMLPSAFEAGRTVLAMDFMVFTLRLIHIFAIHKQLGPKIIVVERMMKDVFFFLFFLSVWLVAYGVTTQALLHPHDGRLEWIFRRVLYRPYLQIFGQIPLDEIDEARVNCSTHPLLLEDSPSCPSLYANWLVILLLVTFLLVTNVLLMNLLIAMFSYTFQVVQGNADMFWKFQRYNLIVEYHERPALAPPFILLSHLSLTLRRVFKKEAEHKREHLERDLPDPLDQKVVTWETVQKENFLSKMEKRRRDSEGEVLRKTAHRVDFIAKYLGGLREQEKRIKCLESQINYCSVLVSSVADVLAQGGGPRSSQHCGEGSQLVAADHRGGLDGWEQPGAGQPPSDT
Description: As described in greater detail below, HEK 293 cells, transiently transfected with a plasmid bearing the human TRPM5 gene, were used to develop the high throughput screening assay. Indirect measurement of the changes in Na^+ ions within the HEK 293 cells were made using a FMP dye and stimulation of the cells using calcium activating agents.
1.0×10^6 HEK 293 cells (ATCC) were plated in each well of a 6-well tissue culture dish overnight. The following day, cells were transfected with 4 μg of a pcDNA3.2 vector containing TRPM5 cDNA and 8 μl of Lipofectamine 2000 (Invitrogen), according to the manufacturer's protocol, and incubated overnight. The following day, transfected cells were trypsinized and seeded into 96-well black, clear bottom, poly-D-lysine plates (Corning) at a density of 70,000 cells/well in a 100 μl volume and incubated in a 37° C./5% CO2 incubator overnight.
Once the expression of TRPM5 was confirmed in the HEK cells, 100 μl of the Blue or Red FMP dye (Molecular Devices) was added to each well of plates seeded with the transiently transfected cells. The plate was then incubated in a 37° C./5% CO2 incubator for 1 hour. The plate was read in a FLEXStation microplate reader (Molecular Devices) with an excitation of 530 nm and an emission of 565 nm. The fluorescence was monitored for 3 minutes upon exposure of the cells to a calcium activating agent (carbachol, thrombin peptide or ATP).

[2] = biological target: T1, TRPM5; assay: TRPM5 membrane potential dye assay (FLIPR), cells stimulated with ATP; set-up: the full length hTRPM5 was amplified by PCR using GC Melt; expressed in transfected cells; details: ATP stimulus
Description: TRPM5 stably expressed in HEK cells was analyzed for its ability to respond to different concentrations of several GPCR agonists. The assay was performed on a FLIPR® using the excitation 510-545 nm and emission 565-625 nm filter sets. Assay plates containing stably expressing HEK cells were loaded with 1× Membrane Potential Assay Dye Red (Molecular Devices) for one hour in a 37° C. and 5% CO2 incubator. The plates were then removed from the incubator and equilibrated to room temperature for 15 minutes before reading on the FLIPR®. The plates were read on the FLIPR® for a total of 3 minutes. Baseline fluorescence was obtained on the FLIPR® for 10 seconds followed by addition of each agonist by the FLIPR® and read for an additional 2 minutes and 50 seconds. […] The values on the graph represent the difference in the maximum minus the minimum fluorescence upon agonist addition. Individual clones are represented by clone number, while the pool of clones represents the sum of all cells that were resistant to selection. In all cases, clone 1 gave the strongest response to all 3 agonists (ATP, carbachol, and thrombin peptide, FIGS. 5A-5C, respectively). Clone 5 and pooled clones generated a lower response in comparison to clone 1. However, both the clone 5 and pool responses were a minimum 3-fold higher than fluorescence in non-transfected cells.
Specificity of potential activating compounds may be identified using suboptimal concentrations of agents that increase intracellular calcium levels. In this type of assay, rather than using a high concentration of, for example carbachol, a reduced concentration is added to TRPM5-expressing cells with or without an additional test compound. Enhancers of TRPM5 activity are those test compounds that increase the fluorescent intensity in reduced carbachol treated cells, to the level seen in cells treated to a high dose.
A carbachol dose response curve was generated for the TRPM5 expressing cells so that the suboptimal concentration range could be determined. […]

[3] = tested on: KCl response; assay: KCl counterscreen (membrane potential dye, 20 mM KCl stimulus); details: TRPM5-expressing cells
Description: KCl activates a number of ion channels, but not TRPM5. Therefore, KCl can be used as a counterscreen to identify modulating compounds specific for TRPM5.
(§1) The ideal blocker would block TRPM5 but not other channels. The TRPM5 assay is conducted as described in Example 3, utilizing a membrane potential dye. A test compound is added, and the cells are then stimulated with ATP to trigger the channel, leading to a dye response. The process is shown schematically in FIG. 7. The KCl counterscreen is performed as described in Example 3, with identical cells, pretreated with the same compound, but the stimulus was 20 mM KCl, not ATP. KCl stimulated and unstimulated responses are used as controls. […] An additional specificity assay utilizes a Ca++ flux dye (Calcium 3 Dye, Part No. R8091) to determine whether or not the compound interferes with agonist-induced Ca++ flux response.

[4] = tested on: agonist-induced Ca++ flux response; assay: Ca++ flux assay (Calcium 3 Dye)
Description: as §1

Molecule	TRPM5 response to agonist (relative fluorescence) [1]	inhibition of the TRPM5 response [2]	effect on KCl response [3]	effect on Ca++ flux response [4]	fluorescence over background ([1]; versus mock treated cells)
Nc1ncnc2c1ncn2[C@@H]1O[C@H](COP(=O)(O)OP(=O)(O)OP(=O)(O)O)[C@@H](O)[C@H]1O [ATP, adenosine triphosphate]	strong spike in relative fluorescence	–	–	–	–
NC1C(=O)/C(=C\c2cc([N+](=O)[O-])cc([N+](=O)[O-])c2O)SC1=S (centres unmarked) [Compound F001344,A3]	–	inhibits TRPM5	inhibits TRPM5, but also the KCl responses	–	–
O=c1[nH]c(SCc2ccccc2)nc(O)c1C(c1ccccc1)c1ccccc1 [Compound F0013488,C13]	–	inhibits TRPM5	–	activates the Ca++ flux response	–
C[N+](C)(C)CCOC(N)=O [carbachol]	strong spike in relative fluorescence	–	–	–	–
C=CCOc1ccc(/C=N/NC(=O)CSCc2cccc(Br)c2)cc1OC [compound 1]	–	dose responsive inhibition of the TRPM5 response	does not alter KCl or Ca++ responses	does not alter KCl or Ca++ responses	–
thrombin	strong spike in relative fluorescence	–	–	–	greater than 4 fold

From patent publication US7749730B2, “High throughput screening assay for the TRPM5 ion channel” (Redpoint Bio Corporation, priority 2005, dated 2010)
